According to the NIST ThermoML archive (doi:10.1021/je8006474):

Test: xn = mol fraction of the nth substance listed
Settings: Pycnometric method

Fc1cc(F)c(F)c(F)c1F [pentafluorobenzene] + CCn1cc[n+](C)c1.O=S(=O)([N-]S(=O)(=O)C(F)(F)F)C(F)(F)F
Settings	molar volume [m3/mol]
283.4 K, Liquid mixture 1, x1 = 0.715	0.0001484
283.4 K, Liquid mixture 2, x1 = 0.997	0.0001093
298.2 K, Liquid mixture 1, x1 = 0.704	0.0001523
298.2 K, Liquid mixture 2, x1 = 0.998	0.0001109
316.6 K, Liquid mixture 1, x1 = 0.696	0.0001552
316.6 K, Liquid mixture 2, x1 = 0.997	0.0001139
333.2 K, Liquid mixture 1, x1 = 0.681	0.0001605
333.2 K, Liquid mixture 2, x1 = 1	0.0001155
353.1 K, Liquid mixture 1, x1 = 0.669	0.0001652
353.1 K, Liquid mixture 2, x1 = 1	0.0001187
373 K, Liquid mixture 1, x1 = 0.657	0.0001692
373 K, Liquid mixture 2, x1 = 1	0.0001228

Fc1cccc(F)c1 [1,3-difluorobenzene] + CCn1cc[n+](C)c1.O=S(=O)([N-]S(=O)(=O)C(F)(F)F)C(F)(F)F
Settings	molar volume [m3/mol]
283.3 K, Liquid mixture 1, x1 = 0.757	0.000134
283.3 K, Liquid mixture 2, x1 = 1	9.82e-05
294.4 K, Liquid mixture 1, x1 = 0.755	0.0001363
294.4 K, Liquid mixture 2, x1 = 1	9.93e-05
316.1 K, Liquid mixture 1, x1 = 0.753	0.0001404
316.1 K, Liquid mixture 2, x1 = 1	0.000102
333.3 K, Liquid mixture 1, x1 = 0.748	0.0001429
333.3 K, Liquid mixture 2, x1 = 1	0.000104
353.1 K, Liquid mixture 1, x1 = 0.742	0.000146
353.1 K, Liquid mixture 2, x1 = 1	0.0001065
373 K, Liquid mixture 1, x1 = 0.736	0.0001492
373 K, Liquid mixture 2, x1 = 1	0.000109

Fc1ccccc1 [fluorobenzene] + CCn1cc[n+](C)c1.O=S(=O)([N-]S(=O)(=O)C(F)(F)F)C(F)(F)F
Settings	molar volume [m3/mol]
282.5 K, Liquid mixture 1, x1 = 0.875	0.0001125
282.5 K, Liquid mixture 2, x1 = 0.992	9.31e-05
297.9 K, Liquid mixture 1, x1 = 0.875	0.0001137
297.9 K, Liquid mixture 2, x1 = 0.991	9.45e-05
315.5 K, Liquid mixture 1, x1 = 0.874	0.000115
315.5 K, Liquid mixture 2, x1 = 0.99	9.61e-05
333.2 K, Liquid mixture 1, x1 = 0.872	0.0001169
333.2 K, Liquid mixture 2, x1 = 0.989	9.84e-05
353.1 K, Liquid mixture 1, x1 = 0.869	0.0001197
353.1 K, Liquid mixture 2, x1 = 0.989	0.000101
373 K, Liquid mixture 1, x1 = 0.865	0.0001231
373 K, Liquid mixture 2, x1 = 0.989	0.0001035
